Measurements: PMC3914206

Assays:
Format in all cases: binding
Conditions in all cases: Compound Concentration 10 µM
[1] = biological target: T1, panel of 442 kinases (Homo sapiens, UniProt O60674)
T1 construct: purchased KINOMEscan
Description: (§1) We assessed the selectivity of members of this scaffold using the KINOMEscan methodology across a near comprehensive panel of 442 kinases [[18,27]].

[2] = biological target: T2, panel of 442 kinases (Homo sapiens, UniProt P22455)
T2 construct: purchased KINOMEscan
Description: as §1

[3] = biological target: T3, panel of 442 kinases (Homo sapiens, UniProt P36888, N841I)
T3 construct: purchased KINOMEscan
T3 sequence (P36888 27-993 N841I): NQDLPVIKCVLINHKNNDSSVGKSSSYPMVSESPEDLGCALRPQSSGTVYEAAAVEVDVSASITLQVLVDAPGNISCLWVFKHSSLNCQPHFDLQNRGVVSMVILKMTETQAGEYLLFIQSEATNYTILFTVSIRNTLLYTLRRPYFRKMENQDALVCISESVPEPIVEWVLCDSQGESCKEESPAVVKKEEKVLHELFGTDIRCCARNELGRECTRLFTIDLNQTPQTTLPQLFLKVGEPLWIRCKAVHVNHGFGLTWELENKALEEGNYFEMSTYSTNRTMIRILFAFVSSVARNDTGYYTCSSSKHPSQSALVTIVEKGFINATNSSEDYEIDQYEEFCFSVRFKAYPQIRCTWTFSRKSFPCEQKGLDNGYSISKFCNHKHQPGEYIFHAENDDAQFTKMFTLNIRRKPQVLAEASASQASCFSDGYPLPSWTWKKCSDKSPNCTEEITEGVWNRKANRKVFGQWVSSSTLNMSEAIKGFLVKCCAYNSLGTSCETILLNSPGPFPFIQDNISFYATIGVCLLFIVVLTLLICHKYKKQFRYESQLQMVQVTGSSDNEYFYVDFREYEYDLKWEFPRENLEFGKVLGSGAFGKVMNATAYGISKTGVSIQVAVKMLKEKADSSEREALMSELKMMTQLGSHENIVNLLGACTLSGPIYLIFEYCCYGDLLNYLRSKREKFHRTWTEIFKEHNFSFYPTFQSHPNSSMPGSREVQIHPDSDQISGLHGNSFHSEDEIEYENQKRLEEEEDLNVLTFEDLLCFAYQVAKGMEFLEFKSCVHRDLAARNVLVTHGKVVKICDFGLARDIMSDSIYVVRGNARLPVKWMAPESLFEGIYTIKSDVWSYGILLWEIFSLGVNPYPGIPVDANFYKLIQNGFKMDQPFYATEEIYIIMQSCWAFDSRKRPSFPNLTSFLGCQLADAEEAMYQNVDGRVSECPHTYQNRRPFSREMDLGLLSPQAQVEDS
Description: as §1

T2 sequence (P22455 22-802): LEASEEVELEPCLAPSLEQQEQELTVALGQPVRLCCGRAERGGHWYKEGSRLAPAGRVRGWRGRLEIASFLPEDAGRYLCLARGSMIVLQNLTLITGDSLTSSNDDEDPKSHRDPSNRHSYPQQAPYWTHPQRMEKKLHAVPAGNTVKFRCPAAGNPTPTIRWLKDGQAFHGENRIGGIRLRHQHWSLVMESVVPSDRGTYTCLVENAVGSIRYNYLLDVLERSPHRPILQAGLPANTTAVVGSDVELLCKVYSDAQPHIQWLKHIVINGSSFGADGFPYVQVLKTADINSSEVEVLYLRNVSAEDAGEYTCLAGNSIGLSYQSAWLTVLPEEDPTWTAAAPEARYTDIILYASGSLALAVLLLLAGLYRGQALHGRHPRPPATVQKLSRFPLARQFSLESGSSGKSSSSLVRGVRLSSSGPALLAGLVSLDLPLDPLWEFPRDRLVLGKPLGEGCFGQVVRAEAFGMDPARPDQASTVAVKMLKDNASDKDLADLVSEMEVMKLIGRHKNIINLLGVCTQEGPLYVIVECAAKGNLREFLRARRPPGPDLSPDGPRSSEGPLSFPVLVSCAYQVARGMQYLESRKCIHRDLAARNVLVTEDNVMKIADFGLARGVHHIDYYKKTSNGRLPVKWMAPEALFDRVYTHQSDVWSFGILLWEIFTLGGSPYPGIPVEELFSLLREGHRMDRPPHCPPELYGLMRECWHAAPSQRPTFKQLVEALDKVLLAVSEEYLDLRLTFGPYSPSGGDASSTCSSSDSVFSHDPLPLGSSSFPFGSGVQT
T1 sequence (O60674 whole entry): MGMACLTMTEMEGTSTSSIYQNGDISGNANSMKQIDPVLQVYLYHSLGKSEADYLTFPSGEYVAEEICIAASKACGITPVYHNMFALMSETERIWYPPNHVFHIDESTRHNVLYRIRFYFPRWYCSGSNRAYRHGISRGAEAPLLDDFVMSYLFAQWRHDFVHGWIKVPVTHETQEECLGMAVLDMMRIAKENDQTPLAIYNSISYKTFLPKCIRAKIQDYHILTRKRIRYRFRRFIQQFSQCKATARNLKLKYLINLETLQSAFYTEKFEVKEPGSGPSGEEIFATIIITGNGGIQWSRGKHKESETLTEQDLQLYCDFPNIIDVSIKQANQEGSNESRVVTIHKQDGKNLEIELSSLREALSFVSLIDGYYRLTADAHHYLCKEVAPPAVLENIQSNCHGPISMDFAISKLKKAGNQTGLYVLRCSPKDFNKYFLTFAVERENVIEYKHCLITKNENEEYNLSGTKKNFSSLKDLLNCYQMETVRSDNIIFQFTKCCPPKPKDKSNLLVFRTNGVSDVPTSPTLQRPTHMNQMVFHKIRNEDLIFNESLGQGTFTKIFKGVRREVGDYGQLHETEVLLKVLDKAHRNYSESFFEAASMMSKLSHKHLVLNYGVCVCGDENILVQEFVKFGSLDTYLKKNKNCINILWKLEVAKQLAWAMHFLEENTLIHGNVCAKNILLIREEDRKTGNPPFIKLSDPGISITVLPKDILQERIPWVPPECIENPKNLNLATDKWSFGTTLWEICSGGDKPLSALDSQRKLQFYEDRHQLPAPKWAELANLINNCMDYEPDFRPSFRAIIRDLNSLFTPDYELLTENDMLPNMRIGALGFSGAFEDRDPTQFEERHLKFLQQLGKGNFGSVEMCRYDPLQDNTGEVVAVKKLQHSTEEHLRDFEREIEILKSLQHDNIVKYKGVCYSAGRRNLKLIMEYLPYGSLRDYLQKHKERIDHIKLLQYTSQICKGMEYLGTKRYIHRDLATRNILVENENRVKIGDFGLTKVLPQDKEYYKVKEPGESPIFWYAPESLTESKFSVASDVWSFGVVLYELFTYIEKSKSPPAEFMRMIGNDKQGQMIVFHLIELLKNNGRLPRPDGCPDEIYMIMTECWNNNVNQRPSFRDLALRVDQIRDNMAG

Structure (SMILES)	KINOMEscan: JAK2(JH1domain-catalytic) [1]	KINOMEscan: FGFR4 [2]	KINOMEscan: FLT3(N841I) [3]
COc1cc(C(=O)N2CCC(N3CCN(C)CC3)CC2)ccc1Nc1ncc2c(n1)N(C)c1ccccc1C(=O)N2C [15 (LRRK2-IN-1)]	70	28	73
COc1cc(C(=O)N2CCC(N3CCN(C)CC3)CC2)ccc1Nc1ncc2c(n1)N1CCc3cccc(c31)C(=O)N2C [Compound 24]	–	23	55
COc1cc(C(=O)N2CCC(N3CCN(C)CC3)CC2)ccc1Nc1ncc2c(n1)N(C1CCCC1)c1ccccc1C(=O)N2C [Compound 25, 11-cyclopentyl-2-((2-methoxy-4-(4-(4-methylpiperazin-1-yl)piperidine-1-carbonyl)phenyl)amino)-5-methyl-5H-benzo[e]pyrimido[5,4-b][1,4]diazepin-6(11H)-one]	95	75	90
CCOc1cc(C(=O)N2CCC(N3CCN(C)CC3)CC2)ccc1Nc1ncc2c(n1)N(C1CCCC1)c1ccccc1C(=O)N2C [Compound 26]	100	100	100
